Laboratory results published in patent US20250127857A1, “A COMPOSITION COMPRISING IL-36 AND/OR IL-18 FOR USE IN TREATING OCULAR DISORDERS” (THE PROVOST, FELLOWS, FOUNDATION SCHOLARS, & THE OTHER …, priority 2021, published 2025).

Assays:
[1] = test system: VEGF; assay: Retinal VEGF ELISA in JR5558 mice; assay type: in vivo, mouse; settings: JR5558 mice 3 weeks old, 100 μg/kg i.p. on 4 consecutive days, retinas isolated day 8
Method: (§1) FIG. 14 illustrates IL-18 can inhibit VEGF secretion in vivo and in vitro, wherein JR5558 mice at 3 weeks (A) were injected (i.p.) with saline (0 μg/kg) or IL-18 (100 μg/kg) on 4 consecutive days (day 1-4), wherein retinas were isolated on day 8 and VEGF concentration in protein lysates was determined using an appropriate ELISA, wherein data are presented as mean±SEM (n=4-5 animals per each treatment group) and expressed as pg of VEGF per mg of total retinal protein as measured by the BCA assay, *p<0.05 by one-way ANOVA with Tukey post test compared to saline controls; (B) is primary human foetal RPE (hfRPE) cells were treated with control medium (0 ng/ml) or a single dose of IL-18 (1000 ng/ml) for 1 to 72 hours, wherein VEGF concentration in the cell-free supernatants was measured at each time point, wherein rate of VEGF secretion was calculated from the slope of linear regression of VEGF concentration (pg/ml) against time (hours) (C), wherein data are presented as mean±SEM and represent a single experiment carried out in triplicate *p<0.05, ***p<0.001 by Student's t test compared to control at each time point;

[2] = test system: VEGF; assay: VEGF secretion by primary human foetal RPE (hfRPE) cells; assay type: cell-based; settings: IL-18 1000 ng/ml, 1-72 hours
Method: as §1

[3] = test system: VEGFR2; assay: qPCR of VEGFR levels in HRMEC treated with IL-18; assay type: cell-based, human; settings: IL-18 100 ng/ml over timepoints
Method: FIG. 15 illustrates IL-18 reduces expression of VEGFR2 specifically in Human retinal endothelial cells (HRMECs), wherein HRMECs were treated with IL-18 (100 ng/ml) over timepoints indicated, wherein cells lysates were prepared for RNA isolation and underwent qPCR and ddCt method to assess relative expression of VEGFR levels, using B-actin as reference control, wherein RT-PCR data are means±SEM of n=3 independent experiments;
Confluent HRMECs were stimulated with 50 or 100 ng/ml of recombinant human IL-18 (SB-485232; GSK); 10 ng/ml of human IL-1α (R&D systems) or 50 ng/ml of human VEGF165 (Peprotech) diluted in complete growth medium, with complete growth media added to wells alone for ‘no treatment’. […]
All RT-PCR assays were carried out using the SensiFAST SYBR Hi-ROX Kit (Bioline) with primers designed using Primer-BLAST (NCBI). […] Data were analysed using the QuantStudio™ Design & Analysis software (Applied Biosystems) and using the comparative Ct (ΔΔCt) method where test samples were normalised to endogenous control (β-Actin) followed by normalising the ΔCt of test samples to sample control (untreated sample), then calculating 2^−ΔΔCt to find the relative fold change of test samples over sample control.

[4] = test system: occludin; assay: Occludin expression in HRMEC (qPCR and immunoblotting); assay type: cell-based, human
Method: FIG. 18 illustrates IL-18 drives expression of tight junction protein occludin and inhibits VEGF depletion of occluding, wherein HRMECS were treated with either VEGF, IL-18 or IL-1α for the timepoints indicated (top panel) and cells were prepared for RNA isolation and qPCR with expression of occluding measured, wherein HRMECs were treated with VEGF, IL-18 or IL-1 or combinations of these cytokines and cells were prepared for immunoblotting for expression of occludin and b-actin (lower panels);
Following transfer, membranes were blocked by incubating in 5% non-fat dried milk (Marvel) in TBS-T for 1 hour at room temperature whilst shaking. Membranes were incubated with primary antibody diluted in either 5% Marvel or BSA, depending on antibody specification, overnight at 4° C. with gentle agitation. Primary antibody was recovered and stored at −20. Membranes were washed three times in TBS-T for 5 minutes and membranes were incubated with secondary antibody, diluted in 5% Marvel, for 1 hour at room temperature. Secondary antibody was removed and discarded, and excess secondary was removed from the membranes by three 5-minute washes in TBS-T.
All RT-PCR assays were carried out using the SensiFAST SYBR Hi-ROX Kit (Bioline) with primers designed using Primer-BLAST (NCBI). For each target a master-mix comprising of 4 μl SYBR Green mix, 0.5 μl of Forward primer (4 μM) and 0.5 μl of Reverse primer (4 μM) along and 3 μl of RNAse free H2O was prepared and mixed thoroughly by vortexing. 8 μl of master-mix was added to each well of a 0.1 mL MicroAMP® Fast 96-well Reaction Plate (Applied Biosystems), along with 2 μl of cDNA and sealed using Optical adhesive film (Applied Biosystems) and spun down for 30 seconds in a centrifuge fitted with microplate rotor (Eppendorf) before running. Plate were run using a QuantStudio 3 real-time PCR System (Applied Biosystems) or the StepOnePlus Real-Time PCR System (Applied Biosystems), with run conditions set as: 50° C. for 2 mins, 95° C. for 10 minutes, 40 cycles of 95° C. for 15 seconds then 60° C. for 1 minute. To assess the quality of Primers a melt-curve stage was added: 95° C. for 1 second, 60° C. for 20 seconds, 95° C. for 1 second. Data were analysed using the QuantStudio™ Design & Analysis software (Applied Biosystems) and using the comparative Ct (ΔΔCt) method where test samples were normalised to endogenous control (β-Actin) followed by normalising the ΔCt of test samples to sample control (untreated sample), then calculating 2^−ΔΔCt to find the relative fold change of test samples over sample control.

[5] = test system: primary human foetal RPE (hfRPE) cells; assay: Scratch assay in hfRPE cultures; assay type: cell-based; settings: IL-18 10-1000 ng/ml, up to 18 hours
Method: FIG. 19 illustrates IL-18 induces fibroblast-like cells to migrate to close a wound created in human Retinal Pigment Epithelium monolayer in vitro, wherein primary human foetal RPE (hfRPE) cells were treated with control medium (0 ng/ml) or increasing doses of IL-18 (10-1000 ng/ml) immediately after making a scratch through the centre of the well, wherein microscopy images were acquired at the same location at baseline (0 hours) and then every 2 hours until 18 hours, representative images for each treatment group are shown, wherein cells were stained with DAPI to show the nuclei, and phalloidin to show F-actin, wherein Brightfield images (phase) are also shown;

[6] = molecular target: T1, IL-18BP (Homo sapiens, UniProt O95998); settings: 1:1 stoichiometry; used for free IL-18 calculation (Migliorini et al., 2010); read-out: dissociation constant (Kd) of the IL-18/IL-18BP complex; cited from earlier work
T1 sequence (O95998 31-194): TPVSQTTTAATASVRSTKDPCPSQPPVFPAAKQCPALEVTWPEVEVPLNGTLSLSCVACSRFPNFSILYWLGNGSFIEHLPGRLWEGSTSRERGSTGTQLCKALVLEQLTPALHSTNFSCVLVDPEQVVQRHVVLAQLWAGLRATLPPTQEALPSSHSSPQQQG

For “IL-18: recombinant human IL-18 (SB-485232; GSK)”, the “VEGF levels in the retinas” value [1] was “significantly decreased”, the “VEGF concentration in cell-free supernatants” value [2] was “decreased VEGF concentration at (almost) all time points examined” and the “overall rate of VEGF secretion” value [2] was “significantly slowed down the overall rate of VEGF secretion”. The VEGFR2 expression [3] was “specifically reduces VEGFR2”, the “rescue of VEGF mediated occludin inhibition” value ([4]; combination with VEGF, immunoblotting) was “can rescue VEGF inhibition of occluding” and the “expression of tight junction protein occludin” value ([4]; single cytokine) was “increased expression of this tight junction protein”. The “cell migration into wound in hfRPE monolayer” value [5] was “appearance of fibroblast-like cells that migrated across the wound” and the Kd [6] was 0.4 nM.
